Data reported in the METLIN SMRT retention time set (Domingo-Almenara et al. 2019).

Assay: gradient 5% acetonitrile 3 min, to 50% in 2 min, to 85% in 15 min, held 3 min, 100 µL/min
Details: column: Zorbax Extend-C18 2.1 x 50 mm; eluents: water / acetonitrile, 0.1% formic acid
Summary of the method: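 Each retention time is based on an adduct peak selected computationally and verified by manual inspection. Measurements used HPLC–quadrupole time-of-flight mass spectrometry in positive and negative ionization mode on mixtures of ~100 pure standards. Chromatography ran on a Zorbax Extend-C18 column (2.1 × 50 mm, 1.8 μm) at 100 μL/min with water and acetonitrile, each containing 0.1% formic acid, and dead and dwell volumes of 40 μL and 900 μL.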

| SMILES | RP-LC retention time |
| --- | --- |
| O=S(=O)(NC1CCCC1)c1cccc(-c2nc(-c3ccccc3)no2)c1 | 1170 s |
| COCCCNC(=O)N1CC(c2nc(C)no2)C2(CCOCC2)C1 (configuration not stated) | 598 s |
| Cc1cc(C)c2c(-n3cccc3)nn(CC(=O)NC3CCCCCC3)c2n1 | 1050 s |
| CCCNC(=O)C1CCN(S(=O)(=O)c2cc(-c3noc(CC)n3)cs2)CC1 | 830 s |
| COc1ccc(C(=O)c2cn(CC(=O)c3ccc(Cl)cc3)c3nc(C)ccc3c2=O)cc1 | 1010 s |
| Cc1cc(=O)n(CC(=O)Nc2ccc(C)c(C)c2)c(N2CCOCC2)n1 | 697 s |
| NCC(O)C1CCCCCCC1 (configuration not stated) | 633 s |
| CN(C)C(=O)c1cc2c(s1)CCC(C(=O)NCCc1cccnc1)C2 (configuration not stated) | 543 s |
| Cc1noc(-c2cc(=O)n(CC(=O)NC3CCCCC3)c3ccccc23)n1 | 819 s |
| Cc1cc(Nc2ccccc2)nc(N2CCN(C(=O)Nc3cccc(Cl)c3)CC2)n1 | 763 s |
| O=c1n(Cc2cccc(Cl)c2)nc2c(S(=O)(=O)N3CCOCC3)cccn12 | 1320 s |
| CCN1C(=O)c2cc(C(=O)Nc3cccc(F)c3)nn2CC1(C)C(=O)NC1CCCC1 (configuration not stated) | 834 s |
| CCc1noc(NC(C)=O)c1-c1ccc(C)c(S(=O)(=O)Nc2ccc(C)cc2Cl)c1 | 914 s |
| COc1ccc(OC)c(S(=O)(=O)N2CCC(C)(c3noc(C)n3)CC2)c1 | 866 s |
| Cc1cccc(-c2noc(Cn3ccn(-c4cc(C)cc(C)c4)c(=O)c3=O)n2)c1 | 925 s |
| CC(=O)c1cccc(NC(=O)c2nc(N(C)C)c3c(C)cc(C)nc3n2)c1 | 564 s |
| O=C(Cn1c(=O)c2cccn2c2ccc(F)cc21)NCCc1ccco1 | 774 s |
| CCN1C(=O)CCc2cc(NS(=O)(=O)c3cc(F)ccc3F)ccc21 | 973 s |
| Cc1cc(N2CCN(C(=O)Nc3ccc4c(c3)OCO4)CC2)nc(N2CCCC2)n1 | 637 s |
| Cc1ncsc1CN1CCCC(n2c(C)cnc2-c2ccncc2)C1 (configuration not stated) | 533 s |
| O=C(Cc1nnc(-c2ccc3ncccc3c2)o1)NCc1ccccc1 | 672 s |
| COC(=O)c1c(C)c(C(=O)C(C)N(CCC(C)C)C(=O)c2ccccc2Cl)c(C)n1C (configuration not stated) | 1130 s |
| CCOC(=O)c1ccc(N2C(=O)CC(NCCCN3CCN(CC)CC3)C2=O)cc1 (configuration not stated) | 636 s |

| SMILES | RP-LC retention time |
| --- | --- |
| Cc1cc(C2CCCN2C(=O)Nc2cccc(C)c2C)no1 (configuration not stated) | 774 s |
| C[C@H](NC[C@H](O)CP(=O)(O)Cc1ccccc1)c1ccc(Cl)c(Cl)c1 | 722 s |
| Cc1ccn2c(NC(=O)C(C)(C)Oc3ccc(Cl)cc3)c(-c3ccccc3)nc2c1 | 804 s |
| Cc1ccc(Sc2ccc(N3CCC(C(=O)N4CCN(c5ccccn5)CC4)CC3)nn2)cc1 | 646 s |
| C=CCn1c(=O)c2ccccc2n(Cc2nc(-c3ccc(C)cc3)no2)c1=O | 1070 s |
| COc1ccc(CN2C=C(C(=O)OCc3noc(-c4ccc(OC)cc4)n3)C(C)=NS2(=O)=O)cc1 | 1110 s |
| O=C(Nc1cccc(F)c1)N1CC2CCCN2c2ccccc21 (configuration not stated) | 1110 s |
| O=C(NCCn1nc(-c2ccco2)ccc1=O)c1ccc2ncsc2c1 | 610 s |
| Cc1ccc2nc(C(=O)NCc3ccc(OC(C)C)cc3)cn2c1 | 731 s |
| Cc1cc(NC(=O)Cn2cnc3c(cnn3C(C)(C)C)c2=O)no1 | 688 s |
| Cc1oc(-c2[nH]ncc2C(=O)N2CCCC2)cc1S(=O)(=O)Nc1cccc(Cl)c1 | 741 s |
| CCCC(=O)N1CCC(c2nc(CCOCC3CC3)no2)C1 (configuration not stated) | 729 s |
| CN(C)c1nc2cc(C(=O)N3CCCC3)sc2n1-c1ccccc1 | 657 s |
| Cc1ccn2cc(C(=O)NC3CCCCCC3)nc2c1 | 683 s |
| Cc1ccc(NC(=O)C2CCN(S(=O)(=O)c3cc(-c4noc(C5CCC5)n4)cs3)CC2)cc1 | 1020 s |
| Fc1cc(F)cc(CN2CCCN(c3ncccc3-c3nc(C4CC4)no3)CC2)c1 | 720 s |
| Cc1cccc(NC(=O)N2CCc3[nH]cnc3C2c2ccncc2)c1C (configuration not stated) | 546 s |
| O=C(CCC1CCCC1)NCCC1CCN(C(=O)Nc2ccc(F)cc2F)CC1 | 880 s |
| Brc1cccc(-c2nc3ncccn3c2NCc2ccccc2)c1 | 860 s |
| COC(=O)c1ccc2c(=O)n(-c3ccccc3)c(N3CCC(C(N)=O)CC3)nc2c1 | 693 s |
| COc1ccccc1-c1nnc(-c2cc(S(=O)(=O)N3CCOCC3)ccc2F)o1 | 828 s |
| CCn1cc(-c2nc(C(=O)Nc3cccc(OC)c3)cs2)c2cccnc21 | 1060 s |
| COc1ccccc1NC(=O)C1CCc2nc(N3CCOCC3)ncc2C1 (configuration not stated) | 741 s |

| SMILES | RP-LC retention time |
| --- | --- |
| CC1=C(c2ccc(C)cc2)S(=O)(=O)N=C1N1CCCN(C(=O)NC(C)C)CC1 | 772 s |
| COc1ccc(NC(=O)C2CCc3nc(N4CCCC4)ncc3C2)cc1OC (configuration not stated) | 719 s |
| Cc1ccc(-c2nc3cnccn3c2Nc2ccc(C)c(Cl)c2)cc1 | 1080 s |
| Cc1ccc(NC(=O)Cn2c(=O)n(-c3cccc(C)c3)c(=O)c3c2cc(C)n3C)cc1 | 899 s |
| CCOC(=O)N1CCN(c2cc(C(=O)O)c3cc(NC(=O)Cc4ccc(OC)cc4)ccc3n2)CC1 | 634 s |
| CCNC(=O)Nc1ccc(N2CCCCC2)nc1 | 561 s |
| CCn1c(=O)c(N2CCN(C(=O)NCc3ccco3)CC2)nc2ccccc21 | 811 s |
| O=C(NCCc1nc2cccnc2n1Cc1ccccc1)NCc1ccco1 | 678 s |
| O=C(c1ccc2cc[nH]c2c1)N1CCC2(CC1)N=C(c1ccc(Cl)cc1)NO2 | 841 s |
| O=C(NCCc1c[nH]c2ccc(Cl)cc12)Nc1ccccc1 | 879 s |
| CCn1cc(S(=O)(=O)N2CCC[C@H]2c2nc(-c3ccc(F)cc3)n[nH]2)cn1 | 714 s |
| O=C(Nc1ccc2c(c1)CCC2)C1CCc2nc(N3CCCCC3)ncc2C1 (configuration not stated) | 905 s |
| CCc1ccccc1NC(=O)Cn1c(N2CCCC2)nc(C)cc1=O | 659 s |
| O=C(C1CCC1)N1CCCC(Cc2nncn2CC2CC2)C1 (configuration not stated) | 596 s |
| O=C(NCc1cccc(F)c1)N1CCC(OC2CCN(Cc3ccccc3)CC2)CC1 | 589 s |
| Cn1nc(-c2nnc(-c3ccccc3Cl)o2)c2c1CCN(C(=O)c1ccco1)C2 | 784 s |
| Cc1ccc(-c2nnc(Cc3nc(-c4ccccc4F)no3)o2)cc1F | 1100 s |
| CCn1c(C)c(C(C)=O)c2cc(OCC(O)CNC(C)c3ccccc3)ccc21 (configuration not stated) | 590 s |
| COc1ccc(NC(=O)C2CCN(S(=O)(=O)c3ccc4c(c3)CCCC(=O)N4)CC2)c(OC)c1 | 741 s |
| C=CCNC(=O)c1cn(-c2ncccc2-c2nc(C(C)(C)C)no2)cn1 | 776 s |
| Cc1cc(C)cc(NS(=O)(=O)c2cc3n(c2)CCN(C(C)C)C3=O)c1 | 808 s |
